The values below come from patent publication US20260263616A1, “NOVEL HE[…] USE THEREOF” (PINOTBIO, INC., priority 2023, published 2026).

Molecules are shown by their SMILES. Square brackets hold non-standard residues; d marks the D form. Peptide text beside a SMILES is read from it. * marks the point of attachment. Dolaproine = CO[C@@H]([C@@H]1CCCN1)[C@@H](C)C(=O)O; Dil = CC[C@H](C)[C@H](NC)[C@@H](CC(=O)O)OC; X1 = C[C@@H](N*)[C@@H](O)c1ccccc1; NMeV = CN[C@H](C(=O)O)C(C)C

Test [1] concerns lung cancer cell line (A549). The experiment in a line: Cell viability assay (CellTiter-Glo), A549. The format is cell-based. The conditions noted are these: for IC50: A549 cells, 3 days incubation, CellTiter-Glo luminescence, 50% of untreated control. On the procedure:
(§1) FaDu or A549 cell lines were seeded into 96-well plates at a density of 3,000 cells per well and incubated at 37° C., 5% CO2. After 24 hours, 100 μL of drug at 9 concentrations (from 1000 nM, serially diluted 1/5) was added to the cell line. As the drugs, the compound of Chemical Formula 2 prepared according to Example 1, SC209 (MedChemExpress), and MMAE were treated, and at this time, a control group (drug concentration 0) without drug treatment was also prepared. After incubation under incubator conditions (37° C., 5% CO2) for 3 days, 100 µL of
(§2) CellTiter-Glo reagent (using CellTiter-Glo® Luminescent Cell Viability Assay kit (Promega, G7571)) was added to each well of the plate, followed by pipetting. After incubation for 10 minutes (RT), luminescence was measured, and when the luminescence value at drug concentration 0 is regarded as 100%, the concentration showing 50% luminescence value is the IC50 value.
Background: ATP-based viability assays read luminescence as a measure of living cells.

The subject of test [2] is head and neck squamous cell carcinoma cell line (FaDu). The experiment in a line: Cell viability assay (CellTiter-Glo), FaDu. The format is cell-based. The conditions noted are these: for IC50: FaDu cells, 3 days incubation, CellTiter-Glo luminescence, 50% of untreated control. On the procedure:
as §1, §2

In the case of `CN[C@H](C(=O)N[C@H](C(=O)N(C)[C@H](/C=C(\C)C(=O)O)C(C)C)C(C)(C)C)C(C)(C)c1ccc(OC)c(N)c1` [Compound of Chemical Formula 2], the IC50 (commonly the concentration that inhibits the measured activity by half) in test [1] (Homo sapiens, 72 h) is 22.6 nM; in test [2] (Homo sapiens, 72 h) it was 6.17 nM. Besides, the “cell viability compared with SC209 and MMAE” value in test [1] (lung cancer cell line (printed A529), 3 days treatment) is “decreased to a level similar to that observed with SC209 and MMAE treatment”; in test [2] (FaDu cell line, 3 days treatment), “decreased to a level similar to that observed with SC209 and MMAE treatment”.

As for `CC[C@H](C)[C@@H]([C@@H](CC(=O)N1CCC[C@H]1[C@H](OC)[C@@H](C)C(=O)N[C@H](C)[C@@H](O)c1ccccc1)OC)N(C)C(=O)[C@@H](NC(=O)[C@@H](NC)C(C)C)C(C)C` [MMAE, reference compound] (H-[NMeV]V[Dil][Dolaproine]-X1), the values for the IC50 in test [1] and in test [2] were 3.72 nM and 1.57 nM, respectively.
